Laboratory results from US20070066616A1, “Inhibitors for extracellular signal-regulated kinase docking domains and uses therefor” (priority 2005, published 2007).
Entries after “also recorded” stand apart in the source; their conditions may differ.

Experiments:
HeLa cells = assay: Colony formation assay, HeLa cells; format: cell-based, human; conditions: for IC50: HeLa cells, single dose 0-100 μM, 8-10 days, at least 3 experiments
Protocol: HeLa, A549, or SUM-159 cells were plated at a low density of ˜200-400 cells per well in the absence or presence of putative ERK docking domain inhibitors. Cell colonies were stained with crystal violet and counted after 6-10 days.
(§1) Trypsinized cells were plated on 12 or 24 well plates at low densities (200-400 cells per well) in the absence (DMSO only) or presence of test compounds. In additional experiments, cells were first allowed to adhere to the culture dishes for 16 hours prior to treatment with test compounds. The treated cells received a single dose of the test compounds at the beginning of the experiments. The control and treated cells were grown for 8-14 days to allow the formation of colonies. Cells then were fixed for 10 minutes in 4% paraformaldehyde and stained with 0.2% crystal violet (in 20% methanol) for 1-2 minutes. Following several washes with distilled water, the colonies (containing at least 40 cells) were counted. Each individual experiment was repeated on at least 3 separate occasions.
HeLa cells were plated at low density and incubated with a single dose (0-100 μM) of the test compounds being tested. After 8-10 days, the resulting cell colonies were stained, photographed, and counted to estimate the IC50. The data is derived from at least 3 independent experiments.

[1] = tested on: ERK-mediated phosphorylation of Elk-1 on S383; assay: ERK-mediated Elk-1 phosphorylation (Ser383), immunoblot in EGF-stimulated HeLa cells; format: cell-based, human
Protocol: (§2) Prior to harvesting, cells were pre-incubated with the test compounds for 15-20 minutes and then stimulated with EGF or anisomycin to activate the ERK or p38 MAP kinase pathways, respectively. […] The lysates then were diluted with an equal volume of 2X SDS-sample buffer and the proteins were separated on SDS-PAGE for immunoblot analysis. Immunoblot analysis was done as previously described (41-43).
(§3) Cells were treated with EGF to activate the ERK pathway and phosphorylation of Elk-1 on the ERK site at S383 was detected by immunoblot analysis (FIG. 5C). […] The effects of the test compounds were also tested with Rsk-1, another ERK substrate involved in regulating cell proliferation.

[2] = tested on: ERK-mediated phosphorylation of Rsk-1 on Thr573; assay: ERK-mediated Rsk-1 phosphorylation (Thr573), immunoblot and densitometry in EGF-stimulated HeLa cells; format: cell-based, human; conditions: immunoblot
Protocol: Prior to harvesting, cells were pre-incubated with the test compounds for 15-20 minutes and then stimulated with EGF or anisomycin to activate the ERK or p38 MAP kinase pathways, respectively. Control and treated cells were washed twice with cold phosphate buffered saline (PBS, pH 7.2; Invitrogen) and proteins were collected following cell lysis with 300 μl of cold tissue lysis buffer (20 mM Tris, pH 7.4, 137 mM NaCl, 2 mM EDTA, 1% Triton X-100, 0.1% SDS, 25 mM β-glycerophosphate, 2 mM sodium pyrophosphate, 10% glycerol, 1 mM sodium orthovanadate, 1 mM phenylmethylsulfonyl fluoride (PMSF), 1 mM benzamidine), allowed to incubate on ice for about 10 minutes and then centrifuged at 20,000 (X g) to clarify the lysates of insoluble material. The lysates then were diluted with an equal volume of 2X SDS-sample buffer and the proteins were separated on SDS-PAGE for immunoblot analysis. Immunoblot analysis was done as previously described (41-43).
All compounds were subjected to assays of ERK specific phosphorylation of Rsk-1 and/or Elk-1 as examined by immunoblot analysis using phosphorylation specific antibodies. In FIG. 5A HeLa cells were cultured in 24 well plates and pretreated for 20-30 minutes with […] of the selected test compounds. The cells were stimulated with epidermal growth factor (EGF, 50 ng/ml) for 5 minutes to activate the ERK pathway. Cell lysates were collected and immunoblotted for ERK-mediated phosphorylation of Rsk-1 on Thr573. As shown, EGF treatment alone caused a robust increase in Thr573 phosphorylation on Rsk-1 in the absence of test compounds. The presence of test compounds had inhibitory effects on ERK-mediated Rsk-1 phosphorylation.
as §3, with “Compounds 86-98 were first tested for inhibition of ERK mediated phosphorylation of the transcription factor Elk-1, which is an important regulator of cell proliferation. Cells” for “Cells”

[3] = tested on: HeLa, A549, or SUM-159 cells; assay: Colony formation assay, screen of test compounds (FIG. 7A); format: cell-based, human; set-up: dose or concentration left out as unconfirmed; conditions: FIG. 7A screen as printed
Protocol: HeLa, A549, or SUM-159 cells were plated at a low density of ˜200-400 cells per well in the absence or presence of putative ERK docking domain inhibitors. Cell colonies were stained with crystal violet and counted after 6-10 days. In FIG. 7A cells were grown on 10 cm plates in the absence (−) or presence of 100 mM of compound 67, 36, 68, 81, or 76. Colony formation dose response in the presence of the indicated concentrations of compound 76 or 81 for Hela cells […] (FIG. 7B), A549 cells (50 mM) (FIG. 7C), or SUM-159 cells (50 mM) (FIG. 7D).
as §1
The effects of the active compounds on cell proliferation and survival were tested using a colony formation assay.

ERK2 = target: T1, ERK2 (Mus musculus, UniProt P63085); assay: Fluorescence titration (quenching of intrinsic ERK2 fluorescence); format: binding; conditions: fluorescence titration
T1 construct: (His)x6; made in house; host or cells: bacteria
T1 sequence (P63085 whole entry): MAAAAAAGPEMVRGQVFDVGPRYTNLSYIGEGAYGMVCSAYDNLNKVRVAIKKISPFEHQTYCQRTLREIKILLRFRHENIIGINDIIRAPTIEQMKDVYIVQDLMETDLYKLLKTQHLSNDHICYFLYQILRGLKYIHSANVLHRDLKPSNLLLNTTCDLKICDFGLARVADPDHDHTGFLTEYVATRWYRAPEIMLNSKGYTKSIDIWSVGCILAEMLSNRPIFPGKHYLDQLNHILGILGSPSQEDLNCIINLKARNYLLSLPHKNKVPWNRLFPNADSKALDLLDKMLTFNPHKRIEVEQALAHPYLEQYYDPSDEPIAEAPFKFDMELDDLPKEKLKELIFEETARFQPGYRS
Protocol: Experiments measure the changes in the intrinsic ERK2 fluorescence due to the presence of aromatic amino acids, with the indole group of tryptophan being the major fluorophore with absorption and emission maxima around 280 and 340 nanometers (nm), respectively. Fluorescence spectra were recorded with a Luminescence Spectrometer LS50 (Perkin Elmer, Boston, Mass.). For all experiments, ERK2 protein was diluted into 20 mM Tris-HCl, pH 7.5. Titrations were performed by increasing the test compound concentration while maintaining the ERK2 protein concentration at 3 μM.
The excitation wavelength was 295 nm and fluorescence was monitored from 300 to 500 nm. All reported fluorescence intensities are relative values and are not corrected for wavelength variations in detector response. Dissociation constants, KD, were determined using reciprocal plots, 1/ν vs 1/[I], where ν represents the percent occupied sites calculated assuming fluorescence quenching to be directly proportion to the percentage of occupied binding sites, [I] represents the concentration of the inhibitor compound and the slope of the curve equals the KD (48-49).
ERK2 contains three tryptophans, which have intrinsic fluorescence. Fluorescence quenching of ERK2 by the test compounds is indicative of binding interactions and potential protein conformational changes.

[4] = tested on: HT1080 fibrosarcoma cells; assay: Cell proliferation, HT1080 cells; format: cell-based, human; conditions: data not shown
Protocol: as §1

[5] = tested on: A549 lung carcinoma cells; assay: Colony formation assay, A549 cells; format: cell-based, human; conditions: colony formation dose response (FIG. 7C)
Protocol: (§4) HeLa, A549, or SUM-159 cells were plated at a low density of ˜200-400 cells per well in the absence or presence of putative ERK docking domain inhibitors. Cell colonies were stained with crystal violet and counted after 6-10 days. In FIG. 7A cells were grown on 10 cm plates in the absence (−) or presence of 100 mM of compound 67, 36, 68, 81, or 76. Colony formation dose response in the presence of the indicated concentrations of compound 76 or 81 for Hela cells (100 mM) (FIG. 7B), A549 cells (50 mM) (FIG. 7C), or SUM-159 cells (50 mM) (FIG. 7D).
as §1

[6] = tested on: SUM-159 estrogen-receptor negative breast cancer cell line; assay: Cell proliferation, SUM-159 cells; format: cell-based, human
Protocol: as §4, §1

[7] = tested on: ERK specific phosphorylation of Rsk-1 and/or Elk-1; assay: ERK substrate phosphorylation assays (Rsk-1 and/or Elk-1); format: cell-based, human
Protocol: as §2

| IC50 (HeLa cells) | SMILES | effect on ERK-mediated Rsk-1 phosphorylation (in words) [2] | also measured |
| --- | --- | --- | --- |
| > 100 µM | C#CCOC(=O)CCCC(=O)Nc1ccc([N+](=O)[O-])cc1Cl [Compound 87] | – | – |
| – | NC(=N[N+](=O)[O-])N/N=C/c1ccc(-c2cccc([N+](=O)[O-])c2)o1 [Compound 89] | most effective | effect on ERK-mediated Elk-1 phosphorylation (in words) [1]: most effective |
| – | CN(C)CCNC(=O)c1ccc(-c2ccccc2)cc1 [Compound 68] | appeared to enhance; also recorded: enhanced | effect on colony formation / cell proliferation (in words) [3]: little effect |
| 10 to 25 µM | COc1cc(C=C2NC(=O)NC2=O)ccc1OCc1ccc(Br)cc1 [Compound 95] | most effective | effect on ERK-mediated Elk-1 phosphorylation (in words) [1]: most effective |
| – | COc1ccc(CN2CCNCC2)cc1 [Compound 67] | significantly reduced | effect on colony formation / cell proliferation (in words) [3]: little effect; ERK2 fluorescence quenching / binding (in words) (ERK2): did not show quenching |
| – | O=C(CCN1CCN(C/C=C/c2ccccc2)CC1)Nc1ccc(Cl)cc1 [Compound 81] | – | inhibition of cell proliferation in HT1080 (in words) [4]: inhibition of cell proliferation; effect on colony formation / cell proliferation (in words) [3]: completely inhibited; ERK2 fluorescence quenching / binding (in words) (ERK2): quenching only occurs to a small extent at the higher concentrations; IC50 [5]: ~15 µM; inhibition of cell proliferation in SUM-159 (in words) [6]: inhibition of cell proliferation |
| 5 to 10 µM | Cc1ccc(-c2nc(-c3cccc([N+](=O)[O-])c3)no2)c(Cl)c1 [Compound 93] | – | effect on ERK-mediated Elk-1 phosphorylation (in words) [1]: most effective; inhibition of colony formation / cancer cell proliferation (in words) (HeLa cells; compounds 86-98, colony formation assay (FIG. 7E)): most effective inhibitors; ERK2 fluorescence quenching / binding (in words) (ERK2): some quenching |
| > 100 µM | COc1ccc(C(=O)Nc2ccc(OCC(=O)O)cc2)cc1 [Compound 96] | – | – |
| > 100 µM | O=C(CN1CCSCC1)NN=Cc1ccc(Br)s1 [Compound 97] | – | – |
| > 100 µM | CCOC(=O)c1ccc(C=NO)[n+]([O-])c1 [Compound 88] | – | – |
| > 100 µM | CCOC(=O)c1ccc(NC(=S)NCCN2CCOCC2)cc1 [Compound 90] | – | – |
| > 100 µM | CC(Oc1ccc(C=C2NC(=S)NC2=O)cc1)C(=O)O (stereo not drawn) [Compound 91] | most effective | – |
| – | N=C(N)Nc1nc(C2COc3ccccc3O2)cs1 (stereo not drawn) [Compound 36] | little effect | activity in ERK substrate phosphorylation assays (in words) [7]: little effect; effect on colony formation / cell proliferation (in words) [3]: subtle inhibition; also recorded: little effect |

| SMILES | IC50 (HeLa cells) | effect on ERK-mediated Rsk-1 phosphorylation (in words) [2] | also measured |
| --- | --- | --- | --- |
| NC(=O)COc1ccc(C=C2C(=O)NC(=S)NC2=O)cc1 [Compound 98] | > 100 µM | – | – |
